Assays:
[1] = parameters: method as in PMID 27217046; settings: clinical; cited from earlier work
[2] = parameters: method as in PMID 22509926; settings: cited from earlier work
TrxR = target: T1, TrxR (Homo sapiens, UniProt Q16881); assay: Thioredoxin reductase activity assay (insulin reduction) on lysates of drug-treated breast cancer cells; type: cell-based; settings: 1000 nM; for inhibition of TrxR activity: 48 h
T1 sequence (Q16881 1-649): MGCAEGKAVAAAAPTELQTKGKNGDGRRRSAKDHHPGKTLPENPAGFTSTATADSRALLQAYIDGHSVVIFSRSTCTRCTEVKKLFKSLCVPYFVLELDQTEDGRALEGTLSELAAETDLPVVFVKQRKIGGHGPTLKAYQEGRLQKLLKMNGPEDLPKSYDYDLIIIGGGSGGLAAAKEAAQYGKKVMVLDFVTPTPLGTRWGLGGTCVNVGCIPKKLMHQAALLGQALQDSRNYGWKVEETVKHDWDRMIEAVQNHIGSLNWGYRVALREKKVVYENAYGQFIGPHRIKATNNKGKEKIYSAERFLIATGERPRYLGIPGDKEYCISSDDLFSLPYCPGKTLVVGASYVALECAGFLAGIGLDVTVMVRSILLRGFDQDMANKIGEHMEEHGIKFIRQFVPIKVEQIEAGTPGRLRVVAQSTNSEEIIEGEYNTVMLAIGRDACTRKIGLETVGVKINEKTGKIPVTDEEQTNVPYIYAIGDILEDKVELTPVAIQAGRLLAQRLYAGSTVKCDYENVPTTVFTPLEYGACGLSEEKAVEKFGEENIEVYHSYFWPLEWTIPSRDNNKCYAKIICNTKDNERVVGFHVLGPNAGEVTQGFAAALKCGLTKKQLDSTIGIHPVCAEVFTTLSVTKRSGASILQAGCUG
Description: TrxR enzyme activity was assessed using an insulin reduction assay. Briefly, 2 × 10^6 cells were seeded, in triplicate, in 75c m^2 tissue culture flasks. After 24 h, sub-confluent cells were treated with either IQ9 (0–1000 nM) or 1000 nM auranofin (as a positive control) for 4 or 48 h, then trypsinised, washed, and resuspended in M-PER™ Mammalian Protein Extraction Reagent (ThermoFisher, USA) supplemented with 1X Halt protease inhibitor and EDTA. Protein concentration was determined using the Bradford assay. 80 μg of protein lysates isolated from each treatment conditions and reaction mix (HE buffer (100 mM HEPES pH 7.2, 5 mM EDTA), 20 μM Trx, 1.7 mM insulin, 10 mM β-NADPH) were added to the 96-well plate and incubated for 1 h at 37 °C. The reaction was stopped by adding stop buffer containing 6 M guanidine hydrochloride, 50 mM Tris, and 10 mM DTNB (Sigma, UK), with a final pH of 8.0. The plate was read at room temperature using a BMG Fluostar Optima Microplate Reader at 412 nm wavelength. The TrxR activity was expressed as the percentage of control, no drug-treated.

renal cancer lines = test system: renal cancer lines; parameters: method as in PMID 28810535; settings: cited from earlier work
breast cancer lines = test system: breast cancer lines; parameters: method as in PMID 31366901; settings: cited from earlier work
breast cancer cell lines = assay: Cell proliferation assay, stated across all cell lines; type: cell-based, human; settings: 400–600 nM, 48 h
Description: 1 × 10^5 cells (2 × 10^5 for T47D’s) were seeded, in triplicate, in 6-well plates and incubated overnight before being treated with IQ9 (0–5000 nM) or doxorubicin (400–600 nM) (positive control and comparator). Total cells were counted after 48 h using a haemocytometer. The total cell count in drug treatment wells was normalised as a percentage of the total cells in vehicle control wells.

O=c1[nH]cc(F)c(=O)[nH]1 [5-FU, 5-fluorouracil]
half-life [1]: less than 20 min

Cn1c(/C=C/CO)c(CO)c2c1C(=O)C=C(N1CC1)C2=O [EO9]
clearance [2]: rapid clearance

CC(=O)OC[C@H]1O[C@@H]([S-])[C@H](OC(C)=O)[C@@H](OC(C)=O)[C@@H]1OC(C)=O.CCP(CC)CC.[Au+] [auranofin, reference compound]
decrease in TrxR activity (TrxR; 4 h, across all cell lines): 70–100% | inhibition of TrxR activity (TrxR; MDA-MB-231): approximately 80% | inhibition of TrxR activity (TrxR; T47D, compared to control): 10%

COc1cc(/C=C/C(=O)CC(=O)/C=C/c2ccc(O)c(OC)c2)ccc1O [curcumin]
SER (renal cancer lines): 1.42 | SER (breast cancer lines): 1.38–1.78

COc1cccc2c1C(=O)c1c(O)c3c(c(O)c1C2=O)C[C@@](O)(C(=O)CO)C[C@@H]3O[C@H]1C[C@H](N)[C@H](O)[C@H](C)O1 [doxorubicin]
decrease in cell number (breast cancer cell lines): 50–70%

From PMC8426295, “Cytotoxic and radiosensitising effects of a novel thioredoxin reductase inhibitor in breast cancer” (Investigational New Drugs, 2021)
